In patent publication US9931335B2, “Desethylhydroxychloroquine for the treatment of diseases associated with inflammation” (The Board of Trustees of the Leland Stanford Junior …, priority 2013, dated 2018):
Entries after “also recorded” stand apart in the source; their conditions may differ. Structures can show the parent of a compound that is named as a salt.

Assays:
[1] = test system: retinal toxicity; details: cited from earlier work
[2] = test system: DMM-induced OA in C57BL6 (B6) mice; assay: Destabilization of the medial meniscus (DMM) mouse model of osteoarthritis; type: in vivo; details: aminoquinolines 100 mg/kg/day, atorvastatin 40 mg/kg/day, oral gavage from 1 week after DMM, 3 months; vs vehicle, two-tailed T test
Description: One week following surgical induction, treatment was initiated with vehicle control, hydroxychloroquine (HCQ), or desethylhydroxychloroquine (DHCQ) dosed at 100 mg/kg/day by oral gavage (once per day). After 3 months, mice were sacrificed, joints harvested, joint sections cut, and tissue sections stained with safranin-O. An examiner blinded to treatment used microscopy to score the severity of OA. The “Cartilage Degeneration Score” (also known as the “OA score”, “Severity Score” and “Histology Score”) was determined by a blinded examiner, and the two-tailed T test used to determine if there were statistical differences in the Cartilage Degeneration Scores between groups.
The histologic sections generated at the termination of the mouse OA experiment presented above and in FIG. 5 were subject to blinded scoring for the “Osteophyte Score” (measure of the amount of osteophyte or ectopic bone formation) and “Synovitis Score” (measure of the amount of synovial and joint inflammation). The scores between groups were compared by two-tailed T test.
Experiments were performed under protocols approved by the Stanford University Committee of Animal Research and in accordance with NIH guidelines. Murine OA was generated by surgically by destabilization of the DMM (Glasson, S., S., et al., Osteoarthritis Cartilage, 15: 1061-1069 (2007)).
Mice were euthanized 3 months after surgery. Their stifle joints were decalcified in EDTA solution, fixed in 4% paraformaldehyde, and embedded in paraffin. Serial 4 micron sections were cut and stained with toluidine blue. Scoring of arthritis in these histology sections was done according to a modified version of previously described composite scoring systems (Kamekura, S., et al. Osteoarthritis Cartilage 13: 632-641 (2005); Bendele, A. M., J Musculoskelet Neuronal Interact., 1: 363-376 (2001)). The “OA Score” was calculated as follows: cartilage degeneration (0-4) was multiplied by the width (1=1/3, 2=2/3, and 3=3/3 of surface area) of each third of the femoral-medial and tibial-medial condyles, and the scores for the 6 regions were summed. To evaluate osteophyte (ectopic bone) formation, we scored toluidine-blue-stained sections according to a previously described scoring system (Kamekura, S., et al. Osteoarthritis development in novel experimental mouse models induced by knee joint instability. Osteoarthritis Cartilage 13, 632-641 (2005)): 0, none; 1, formation of cartilage-like tissues; 2, increase of cartilaginous matrix; 3, endochondral ossification. To evaluate synovitis, we scored H&E-stained sections according to a previously described scoring system (Blom, A. B., et al. Synovial lining macrophages mediate osteophyte formation during experimental osteoarthritis. Osteoarthritis Cartilage 12, 627-635 (2004)): 0, no changes compared to normal joints; 1, thickening of the synovial lining and some influx of inflammatory cells; 2, thickening of the synovial lining and intermediate influx of inflammatory cells; and 3, profound thickening of the synovial lining (more than four cell layers) and maximal observed influx of inflammatory cells. Scores for osteophyte formation and synovitis were recorded for the femoral-medial and the tibial-medial condyles on the operated side of the joint, and the scores for the two regions were summed and statistical comparisons performed using a two-tailed T test.
Treatment was started 1 week after surgical induction of destabilization of the medial meniscus (DMM), a time point at which mice were at increased risk for the development of OA.

[3] = test system: diet-induced obesity in C57BL/6 mice; assay: Mouse diet-induced obesity: type II diabetes, hyperlipidemia and metabolic syndrome; type: in vivo; details: 10 mg/kg/day, 6 weeks, vs vehicle; for blood glucose: two-tailed T test
Description: To evaluate treatment with DHCQ and HCQ on a mouse model of diet-induced type II diabetes, hyperlipidemia and metabolic syndrome, C57BL/6 mice (8 per group) were fed a high-fat “western-style” diet (60% caloric content from fat; Taconic). In an analogous fashion to that in Example 6, two weeks following initiation of the high-fat diet groups of mice were initiated on treatment with vehicle control, HCQ (10 mg/kg/day) or the HCQ metabolites DHCQ (10 mg/kg/day), DCQ (10 mg/kg/day), or BDCQ (10 mg/kg/day). After 6 weeks of treatment, blood was collected for analysis of glucose, triglyceride, and cholesterol levels.

[4] = test system: collagen-induced arthritis (CIA) in DBA/1 mice; assay: Collagen-induced arthritis (CIA) mouse model for RA, treatment from first immunization; type: in vivo; details: 50 mg/kg/day oral gavage, 100 mg/kg/day loading day 14-21; vs vehicle, Mann Whitney U test P<0.05
[5] = test system: ARPE-19 cells
Description: The major serious risk to long term administration of hydroxychloroquine is retinal accumulation and subsequent ocular toxicity (Terahi et al, 2008. Semin Opthal. (3):201-208. PMID). The ocular deposition of HCQ, DHCQ, and BDCQ was evaluated by direct retinal cellular toxicity by incubating equivalent concentrations of these molecules with the retinal pigmented epithelial cell line ARPE-19. ARPE-19 is a human retinal pigment epithelial cell line with differentiated properties (Dunn et al., Exp Eye Res. 1996 62(2):155-69). ARPE-19 cells were grown to 90% confluence, and then exposed to 10 µg/ml of HCQ, DHCQ, BDCQ, or vehicle control for 24 hours, following which microscopic analysis and photomicroscopy was performed at 40× power.
As described above, ARPE-19 cells were grown to 90% confluence then exposed to 10 μg/ml HCQ, DHCQ, BDCQ, or vehicle control for 24 hours followed by quantitation of cell death by lactate dehydrogenase (LDH) release assay (Abcam).

Compound	total cholesterol [3]	triglycerides [3]	blood glucose [3]	arthritis score (development of disease and disease activity) [4]	other results
CCN(CC)CCCC(C)Nc1ccnc2cc(Cl)ccc12 (centres unmarked) [chloroquine]					rates of retinal toxicity relative to HCQ ([1]; in vivo): Considerably higher rates of toxicity
CC(C)c1c(C(=O)Nc2ccccc2)c(-c2ccccc2)c(-c2ccc(F)cc2)n1CC[C@@H](O)C[C@@H](O)CC(=O)O [atorvastatin, reference compound]					Cartilage Degeneration Score (OA score) [2]: only resulted in trends towards improvement; also recorded: did not result in a statistically significant reduction in the severity of OA
CCNCCCC(C)Nc1ccnc2cc(Cl)ccc12 (centres unmarked) [DCQ, desethylchloroquine]	did not result in statistical reductions	did not result in statistical reductions	did not result in statistical reductions in blood glucose	not associated with statistical protection or reduction in disease severity	
CCN(CCO)CCCC(C)Nc1ccnc2cc(Cl)ccc12 (centres unmarked) [HCQ sulfate, hydroxychloroquine sulfate]					incidence of retinal toxicity after 5 years ([1]; treated humans, conventional doses): 0.5-1%; incidence of retinal toxicity after 10-15 years ([1]; treated humans): approximately 2%; physician discontinuation for earlier eye problems over 5 years ([1]; treated patients): ~7%
CC(CCCN)Nc1ccnc2cc(Cl)ccc12 (centres unmarked) [BDCQ, bisdesethylchloroquine]	did not result in statistical reductions	did not result in statistical reductions	did not result in statistical reductions in blood glucose	not associated with statistical protection or reduction in disease severity	ARPE-19 cellular toxicity by microscopy [5]: increased cytotoxicity and death
